Source: patent US9556135B2, “Amino-dihydrothiazine and amino-dioxido dihydrothiazine compounds as beta-secretase antagonists and methods of use” (Amgen Inc., priority 2012, dated 2017)

Tested on: Abeta 40
Assay: In vivo inhibition of beta-secretase: Abeta 40 reduction in CSF and brain of the rat
Settings: 10 mpk (unless otherwise noted), after 4 hrs
From the text: In Vivo Inhibition of Beta-Secretase
Several animal models, including mouse, rat, dog, and monkey, may be used to screen for inhibition of beta-secretase activity in vivo following administration of a test compound sample. Animals used in this invention can be wild type, transgenic, or gene knockout animals. […] One to twenty-four hours following the administration of compound, animals are sacrificed, and brains as well as cerebrospinal fluid (CSF) and plasma are removed for analysis of A-beta levels and drug or test compound concentrations (Dovey et al., 2001, Journal of Neurochemistry, 76, 173-181) Beginning at time 0, animals are administered by oral gavage, or other means of delivery such as intravenous injection, an inhibitory test compound of up to 100 mg/kg in a standard, conventional formulation, such as 2% hydroxypropyl methylcellulose, 1% Tween80. A separate group of animals receive 2% hydroxypropyl methylcellulose, 1% Tween80 alone, containing no test compound, and serve as a vehicle-control group. At the end of the test period, animals are sacrificed and brain tissues, plasma or cerebrospinal fluid are collected. Brains are either homogenized in 10 volumes (w/v) of 0.2% diethylamine (DEA) in 50 mM NaCl (Best et al., 2005, Journal of Pharmacology and Experimental Therapeutics, 313, 902-908), or in 10 volumes of 0.5% TritonX-100 in Tris-buffered saline (pH at about 7.6). Homogenates are centrifuged at 355,000 g, 4° C. for 30 minutes. CSF or brain supernatants are then analyzed for the presence of A-beta peptide by specific sandwich ELISA assays based on ECL (Electrochemiluminescence) technology. For example, rat Abeta40 is measured using biotinylated-4G8 (Signet) as a capture antibody and Fab40 (an in-house antibody specific to the C-terminal of Abeta40) as a detection antibody.
Actual vehicles used: Oral: 2% HPMC, 1% Tween80, pH 2.2

Structure (SMILES) | % reduction of rat CSF levels at 10 pmk [%] | % reduction of rat brain levels at 10 mpk [%]
CC1(C)C(N)=N[C@](C)(c2cc(Nc3ncnc4cc(Cl)cnc34)ccc2F)C(F)S1(=O)=O (stereo partly drawn) [Example 228, N-(3-((3R)-5-amino-2-fluoro-3,6,6-trimethyl-1,1-dioxido-3,6-dihydro-2H-1,4-thiazin-3-yl)-4-fluorophenyl)-7-chloropyrido[3,2-d]pyrimidin-4-amine] | 67 | 58
CC1(C)C(N)=N[C@](C)(c2cc(Nc3ncnc4cc(C#N)cnc34)ccc2F)C(F)S1(=O)=O (stereo partly drawn) [Example 229, 4-((3-((3R)-5-amino-2-fluoro-3,6,6-trimethyl-1,1-dioxido-3,6-dihydro-2H-1,4-thiazin-3-yl)-4-fluorophenyl)amino)pyrido[3,2-d]pyrimidine-7-carbonitrile] | 61 | 43
CC1(C)C(N)=N[C@](CF)(c2cc(Nc3ncc(F)c4cc(Cl)cnc34)ccc2F)CS1(=O)=O [Example 233, N-(3-((3S)-5-amino-3-(fluoromethyl)-6,6-dimethyl-1,1-dioxido-3,6-dihydro-2H-1,4-thiazin-3-yl)-4-fluorophenyl)-3-chloro-5-fluoro-1,7-naphthyridin-8-amine] | 25 | 0
CC1(C)C(N)=N[C@](CF)(c2cc(Nc3ncnc4cc(Cl)cnc34)ccc2F)CS1(=O)=O [Example 235, N-(3-((3S)-5-amino-3-(fluoromethyl)-6,6-dimethyl-1,1-dioxido-3,6-dihydro-2H-1,4-thiazin-3-yl)-4-fluorophenyl)-7-chloropyrido[3,2-d]pyrimidin-4-amine] | 38 | 14
CC1(C)C(N)=N[C@](CF)(c2cc(Nc3ncnc4cc(C#N)cnc34)ccc2F)CS1(=O)=O [Example 236, 4-((3-((3S)-5-amino-3-(fluoromethyl)-6,6-dimethyl-1,1-dioxido-3,6-dihydro-2H-1,4-thiazin-3-yl)-4-fluorophenyl)amino)pyrido[3,2-d]pyrimidine-7-carbonitrile] | 35 | 1
CC#CCOc1cnc(C(=O)Nc2ccc(F)c([C@]3(C)CS(=O)(=O)[C@@](C)(F)C(N)=N3)c2)cn1 [Example 317, N-(3-((3R,6R)-5-amino-6-fluoro-3,6-dimethyl-1,1-dioxido-3,6-dihydro-2H-1,4-thiazin-3-yl)-4-fluorophenyl)-5-(2-butyn-1-yloxy)-2-pyrazinecarboxamide] | 23 | 0
Cc1cc(OC(F)F)cnc1C(=O)Nc1ccc(F)c([C@]2(C)CS(=O)(=O)[C@@](C)(F)C(N)=N2)c1 [Example 321, N-(3-((3R,6R)-5-amino-6-fluoro-3,6-dimethyl-1,1-dioxido-3,6-dihydro-2H-1,4-thiazin-3-yl)-4-fluorophenyl)-5-(difluoromethoxy)-3-methyl-2-pyridinecarboxamide] | 44 | 37
Cc1cc(C#N)cnc1C(=O)Nc1ccc(F)c([C@]2(C)CS(=O)(=O)[C@@](C)(F)C(N)=N2)c1 [Example 324, N-(3-((3R,6R)-5-amino-6-fluoro-3,6-dimethyl-1,1-dioxido-3,6-dihydro-2H-1,4-thiazin-3-yl)-4-fluorophenyl)-5-cyano-3-methyl-2-pyridinecarboxamide] | 44 | 29
CC1(C)C(N)=N[C@](C)(c2cc(NC(=O)c3ncc(Cl)cc3F)ccc2F)C(F)S1(=O)=O (stereo partly drawn) [Example 329, N-(3-((3R)-5-amino-2-fluoro-3,6,6-trimethyl-1,1-dioxido-3,6-dihydro-2H-1,4-thiazin-3-yl)-4-fluorophenyl)-5-chloro-3-fluoro-2-pyridinecarboxamide] | 27 | 20
Cc1cc(OC(F)F)cnc1C(=O)Nc1ccc(F)c([C@@]2(C)N=C(N)C(C)(C)S(=O)(=O)C2F)c1 (stereo partly drawn) [Example 330, N-(3-((3R)-5-amino-2-fluoro-3,6,6-trimethyl-1,1-dioxido-3,6-dihydro-2H-1,4-thiazin-3-yl)-4-fluorophenyl)-5-(difluoromethoxy)-3-methyl-2-pyridinecarboxamide] | 78 | 72
Cc1cc(Cl)cnc1C(=O)Nc1ccc(F)c([C@@]2(C)N=C(N)C(C)(C)S(=O)(=O)C2F)c1 (stereo partly drawn) [Example 331, N-(3-((3R)-5-amino-2-fluoro-3,6,6-trimethyl-1,1-dioxido-3,6-dihydro-2H-1,4-thiazin-3-yl)-4-fluorophenyl)-5-chloro-3-methyl-2-pyridinecarboxamide] | 67 | 59
CC#CCOc1cnc(C(=O)Nc2ccc(F)c([C@@]3(C)N=C(N)C(C)(C)S(=O)(=O)C3F)c2)cn1 (stereo partly drawn) [Example 332, N-(3-((3R)-5-amino-2-fluoro-3,6,6-trimethyl-1,1-dioxido-3,6-dihydro-2H-1,4-thiazin-3-yl)-4-fluorophenyl)-5-(2-butyn-1-yloxy)-2-pyrazinecarboxamide] | 24 | 11
CC1(C)C(N)=N[C@](C)(c2cc(NC(=O)c3cnc(OCC(F)(F)F)cn3)ccc2F)CS1(=O)=O [Example 346, N-(3-((3R)-5-amino-3,6,6-trimethyl-1,1-dioxido-3,6-dihydro-2H-1,4-thiazin-3-yl)-4-fluorophenyl)-5-(2,2,2-trifluoroethoxy)-2-pyrazinecarboxamide] | 69 | 48
Cc1cc(Cl)cnc1C(=O)Nc1cnc(F)c([C@]2(C)CS(=O)(=O)C3(CCC3)C(N)=N2)c1 [Example 359, N-(5-((7R)-9-amino-7-methyl-5,5-dioxido-5-thia-8-azaspiro[3.5]non-8-en-7-yl)-6-fluoro-3-pyridinyl)-5-chloro-3-methyl-2-pyridinecarboxamide] | 55 | 24
COc1cnc(C(=O)Nc2ccc(F)c([C@]3(CF)CS(=O)(=O)C(C)(C)C(N)=N3)c2)c(C)c1 [Example 377, N-(3-((3S)-5-amino-3-(fluoromethyl)-6,6-dimethyl-1,1-dioxido-3,6-dihydro-2H-1,4-thiazin-3-yl)-4-fluorophenyl)-5-methoxy-3-methyl-2-pyridinecarboxamide] | 68 | 53
CC1(C)C(N)=N[C@](CF)(c2cc(Nc3nccc4cc(C#N)cnc34)ccc2F)CS1(=O)=O [Example 387, 8-((3-((3S)-5-amino-3-(fluoromethyl)-6,6-dimethyl-1,1-dioxido-3,6-dihydro-2H-1,4-thiazin-3-yl)-4-fluorophenyl)amino)-1,7-naphthyridine-3-carbonitrile] | 43 | 27
Cc1cc(Cl)cnc1C(=O)Nc1ccc(F)c([C@]2(C)CS(=O)(=O)[C@@](C)(F)C(N)=N2)c1 [Example 388, N-(3-((3R,6R)-5-amino-6-fluoro-3,6-dimethyl-1,1-dioxido-3,6-dihydro-2H-1,4-thiazin-3-yl)-4-fluorophenyl)-5-chloro-3-methyl-2-pyridinecarboxamide] | 33 | 7
CC1(C)C(N)=N[C@](C)(c2cc(NC(=O)c3ccc(Cl)cn3)cnc2F)CS1(=O)=O [Example 398, N-(5-((3R)-5-amino-3,6,6-trimethyl-1,1-dioxido-3,6-dihydro-2H-1,4-thiazin-3-yl)-6-fluoro-3-pyridinyl)-5-chloro-2-pyridinecarboxamide] | 63 | 39
Cc1cc(OC(F)F)cnc1C(=O)Nc1cnc(F)c([C@]2(C)CS(=O)(=O)C(C)(C)C(N)=N2)c1 [Example 400, N-(5-((3R)-5-amino-3,6,6-trimethyl-1,1-dioxido-3,6-dihydro-2H-1,4-thiazin-3-yl)-6-fluoro-3-pyridinyl)-5-(difluoromethoxy)-3-methyl-2-pyridinecarboxamide] | 58 | 25
COc1ccc(C(=O)Nc2cnc(F)c([C@]3(C)CS(=O)(=O)C(C)(C)C(N)=N3)c2)nc1 [Example 401, N-(5-((3R)-5-amino-3,6,6-trimethyl-1,1-dioxido-3,6-dihydro-2H-1,4-thiazin-3-yl)-6-fluoro-3-pyridinyl)-5-methoxy-2-pyridinecarboxamide] | 69 | 48
CC1(C)C(N)=N[C@](C)(c2cc(NC(=O)c3cnc(OCC(F)(F)F)cn3)cnc2F)CS1(=O)=O [Example 402, N-(5-((3R)-5-amino-3,6,6-trimethyl-1,1-dioxido-3,6-dihydro-2H-1,4-thiazin-3-yl)-6-fluoro-3-pyridinyl)-5-(2,2,2-trifluoroethoxy)-2-pyrazinecarboxamide] | 43 | 10
